From ChEMBL document CHEMBL1629586, “Preparation and stability of voriconazole eye drop solution” (Antimicrob Agents Chemother, 2009)

Experiment: Chemical stability of the compound at pH 7 after 30 days
Type: physicochemical
Conditions: buffer, pH 7, 720 h

With C[C@@H](c1ncncc1F)[C@](O)(Cn1cncn1)c1ccc(F)cc1F [VORICONAZOLE] the Stability was “Stable”.
